Data reported in patent publication US6989377B2, “Treating vitamin D responsive diseases” (priority 1999, dated 2006).

How the values were obtained:
129x1/SvJ male mice = assay: Serum calcium after calcitriol feeding, 129x1/SvJ male mice; assay type: in vivo, mouse
Experimental: In order to determine serum calcium, blood was collected, allowed to clot, and centrifuged (5,000×g for 10 minutes) at 6° C. The serum was decanted and stored frozen at −20° C. The samples, standards, and buffer blanks (2 μL each) were aliquoted into duplicate wells of a 96-well plate. Calcium reagent working solution (0.25 mL), prepared according to the manufacturer's directions (Sigma Diagnostics, St. Louis, Mo.), was added to each well, and the absorbance at 570 nm was measured.

EAE in mice = details: cited from earlier work
[1] = test system: collagen induced arthritis in mice; details: calcitriol administered to mice; cited from earlier work
[2] = test system: chronic DS-induced IBD in C3H/HeJ male mice; assay: Calcitriol treatment of chronic DS-induced colitis; assay type: in vivo, mouse
Experimental: Fecal hemoglobin was analyzed in the mice to determine bleeding from a breached intestinal barrier. […] Co., Needham Heights, Mass.), the supernatants were decanted into fresh tubes and stored frozen at -20° C. Hemoglobin in the supernatants was analyzed by a method adapted from Saitoh et al., Digestion, 56:67-75, 1995, and Liem et al., Anal. Biochem., 98:388-393, 1979, with rat hemoglobin as standard (Sigma-Aldrich). The supernatants were diluted 1:25 in TBS. […] The reaction was stopped with 100 μL of 2 M phosphoric acid, and the absorbance at 450 nm was measured with an MRX Revelation Microplate Reader (DYNEX Technologies). […] The mice were euthanized with an i.p. injection of pentobarbital. […] The fixed tissue was embedded in paraffin, sectioned at 6 μm, stained with hematoxylin and eosin, and examined by light microscopy. Scoring was conducted by a veterinary pathologist in blinded fashion. […] Clin. Invest., 98:1010-1020, 1996. The scores were summed to provide a total colitis score for each mouse. […] The serum was decanted and stored frozen at -20° C. The samples, standards, and buffer blanks (2 μL each) were aliquoted into duplicate wells of a 96-well plate. Calcium reagent working solution (0.25 mL), prepared according to the manufacturer's directions (Sigma Diagnostics, St. Louis, Mo.), was added to each well, and the absorbance at 570 nm was measured. […] In particular, age-matched adult C3H/HeJ male mice were subjected to three DS treatment cycles treatment separated by 6-8 weeks. […] Between treatments, the mice were fed laboratory mouse chow. These treatments induced chronic IBD. Beginning 10 days after the last DS treatment was completed, the mice were divided into two groups. The groups were matched with respect to fecal Hg and weight (Table 6). Group A was fed synthetic diet and group B was fed calcitriol in synthetic diet. The experiment was terminated 21 days later.

129-IL-10−/− mice = assay: Spontaneous colitis in strain 129-IL-10-deficient mice; assay type: in vivo, mouse
From the text: This example describes the spontaneous colitis that develops spontaneously in strain 129-IL-10^−/− mice with and without administration of calcitriol. It has been reported that mice made genetically deficient in IL-10 spontaneously develop chronic enterocolitis (Kuhn et al., Cell, 75:263-274, 1993) if resident enteric bacteria is present (Sellon et al., Infect. Immunity, 66:5224-5231, 1998). The effect of calcitriol on spontaneous colitis in 129-IL-10^−/− mice is examined. […] The mice were age 7 weeks when they were exposed to soiled bedding from mice housed under conventional conditions. This was done to provide the enteric bacteria for development of colitis.

[3] = test system: DS-induced colitis in C3H/HeJ male mice; assay: Calcitriol prevention of DS-induced colitis; assay type: in vivo, mouse
Experimental: Fecal hemoglobin was analyzed in the mice to determine bleeding from a breached intestinal barrier. […] Co., Needham Heights, Mass.), the supernatants were decanted into fresh tubes and stored frozen at -20° C. Hemoglobin in the supernatants was analyzed by a method adapted from Saitoh et al., Digestion, 56:67-75, 1995, and Liem et al., Anal. Biochem., 98:388-393, 1979, with rat hemoglobin as standard (Sigma-Aldrich). The supernatants were diluted 1:25 in TBS. […] The reaction was stopped with 100 μL of 2 M phosphoric acid, and the absorbance at 450 nm was measured with an MRX Revelation Microplate Reader (DYNEX Technologies). […] The mice were euthanized with an i.p. injection of pentobarbital. […] The fixed tissue was embedded in paraffin, sectioned at 6 μm, stained with hematoxylin and eosin, and examined by light microscopy. Scoring was conducted by a veterinary pathologist in blinded fashion. […] Clin. Invest., 98:1010-1020, 1996. The scores were summed to provide a total colitis score for each mouse. […] In particular, age-matched C3H/HeJ male mice were fed a synthetic diet (see Example 6) with or without calcitriol or prednisolone for one week. […] The mice were weighed every 3-4 days thereafter. […] Serum and colon tissue were collected on day 28. Most assays were performed as described in Example 6, and the terminal serum calcium assay was performed as described below. […] The serum was decanted and stored frozen at -20° C. The samples, standards, and buffer blanks (2 μL each) were aliquoted into duplicate wells of a 96-well plate. Calcium reagent working solution (0.25 mL), prepared according to the manufacturer's directions (Sigma Diagnostics, St. Louis, Mo.), was added to each well, and the absorbance at 570 nm was measured.

[4] = test system: DS-induced colitis in C3H/HeJ male mice; assay: Calcitriol prevention of DS-induced colitis; assay type: in vivo, mouse; details: 50 ng/day in diet from day −7; 1% DS days 0 to 5; terminated day 27
[5] = given before EAE induction or at stage 1 EAE
[6] = 50 ng/day after cycle 3, 21 days, 3 cycles of 1% DS
[7] = 50 ng/day after cycle 3, 3 cycles of 1% DS

SMILES: C=C1/C(=C\C=C2/CCC[C@]3(C)[C@@H]([C@H](C)CCCC(C)(C)O)CC[C@@H]23)C[C@@H](O)C[C@@H]1O [Calcitriol, 1,25 dihydroxyvitamin D3]
- Serum Calcium 129x1/SvJ male (129x1/SvJ male mice; 10 ng/d for two weeks): 12.4 ± 0.6 mg/dL
- Serum Calcium 129x1/SvJ male (129x1/SvJ male mice; 20 ng/d for two weeks): 11.5 ± 0.1 mg/dL
- Serum Calcium 129x1/SvJ male (129x1/SvJ male mice; 50 ng/d for two weeks): 11.5 ± 0.4 mg/dL
- Serum Calcium 129x1/SvJ male (129x1/SvJ male mice; 100 ng/d for two weeks): 11.1 ± 1.1 mg/dL
- Tolerability of the calcitriol doses (129x1/SvJ male mice; mouse, in vivo): well tolerated
- Disease induction for EAE (EAE in mice; calcitriol administered to mice): blocked disease induction
- Clonal expansion of Th1 cells producing IFN-γ and TNF-α (EAE in mice; [5]): arrested the clonal expansion of Th1 cells
- Transcript accumulation for TGF-β1 and IL-4 in central nervous system and lymph nodes (EAE in mice; [5]): stimulated an increase in transcript accumulation
- Disease induction for collagen induced arthritis [1]: blocked disease induction
- Terminal serum calcium [2, 6]: 10.3 ± 1.1 mg/dL
- Terminal weight [2, 6]: 35.1 ± 4.0 g
- Colon Histopathology, Distal colon [2, 7]: 1 ± 1
- Colon histopathology, Medial colon [2, 7]: 1 ± 1
- Colon histopathology, Proximal colon [2, 7]: 2 ± 1
- Colon histopathology, Rectum [2, 7]: 2 ± 1
- Colon histopathology, Sum [2, 7]: 6 ± 2
- Hemoglobin in Stool (DS cycle 3) ([2]; DS cycle 3, before calcitriol was started (groups matched for fecal Hg)): 9 ± 10 mg/g
- Effect on severity of chronic DS-induced IBD ([2]; calcitriol in synthetic diet for 21 days): reduced the severity of chronic DS-induced IBD
- Reduction in colon histopathology ([2]; treated with calcitriol for 21 days): approximately 45%
- Colon Histopathology, Distal colon (129-IL-10−/− mice; 10 ng/day): 4 ± 0
- Colon histopathology, Medial colon (129-IL-10−/− mice; 10 ng/day): 4 ± 0
- Colon histopathology, Proximal colon (129-IL-10−/− mice; 10 ng/day): 4 ± 0
- Colon histopathology, Rectum (129-IL-10−/− mice; 10 ng/day): 4 ± 0
- Colon histopathology, Sum (129-IL-10−/− mice; 10 ng/day): 16 ± 0
- Peak hemoglobin in stool (129-IL-10−/− mice; 10 ng/day in synthetic diet): 0 ± 0
- Terminal serum calcium (129-IL-10−/− mice; 10 ng/day in synthetic diet): 12.5 ± 1.5 mg/dL
- Terminal weight (129-IL-10−/− mice; 10 ng/day in synthetic diet): 19.5 ± 1.5 g
- Effect on spontaneous colitis (129-IL-10−/− mice; 129-IL-10−/− mice): did not prevent spontaneous colitis
- Hypercalcemia (129-IL-10−/− mice; 129-IL-10−/− mice): developed hypercalcemia
- Peak Hg in Stool ([3]; 50 ng/day in diet from day −7, 1% DS days 0 to 5): 4.3 ± 4.4 mg/g
- Effect of pre-treatment on severity of DS-induced IBD ([3]; 50 ng/day pre-treatment): reduced the severity of DS-induced IBD
- Colon Histopathology, Distal colon ([3]; 50 ng/day, 1% DS, score 0 to 4): 0.6 ± 0.9
- Colon histopathology, Medial colon ([3]; 50 ng/day, 1% DS, score 0 to 4): 0.4 ± 0.9
- Colon histopathology, Proximal colon ([3]; 50 ng/day, 1% DS, score 0 to 4): 0.4 ± 0.5
- Colon histopathology, Rectum ([3]; 50 ng/day, 1% DS, score 0 to 4): 1.2 ± 1.1
- Colon histopathology, Sum ([3]; 50 ng/day, 1% DS, total score 0 to 16): 2.6 ± 1.9
- Peak Hg in the stool, lower than that in the prednisolone-treated group ([3]; calcitriol 50 ng/day vs prednisolone 50 ng/day): 65%
- Peak Hg in the stool, lower than that in the untreated group ([3]; calcitriol 50 ng/day vs untreated DS group): 37%
- Total colon histopathology score, lower than the score of the untreated group B ([3]; calcitriol group C vs group B): 61%
- Total colon histopathology score, lower than the score of the prednisolone-treated group D ([3]; calcitriol group C vs group D): 51%
- Terminal weight [4]: 28.0 ± 2.9 g
